Reference: US11746116B2, “Antibiotic resistance breakers” (KING'S COLLEGE LONDON, priority 2017, dated 2023)
Values after ≈ are worked out from the molar mass of the structure shown.

Assays:
[1] = male, CD-1 (ICR), mouse, in vivo, iv, 5 mg/kg
[2] = target: Safetyscreen44 off target panel (Homo sapiens, UniProt P08588)
[3] = target: Safetyscreen44 off target panel (Homo sapiens, UniProt P10275)
[4] = target: Safetyscreen44 off target panel (Homo sapiens, UniProt P11229)
[5] = target: Safetyscreen44 off target panel (Homo sapiens, UniProt P20309)
Chain of Safetyscreen44 off target panel (Homo sapiens, UniProt P20309) (P20309 whole entry): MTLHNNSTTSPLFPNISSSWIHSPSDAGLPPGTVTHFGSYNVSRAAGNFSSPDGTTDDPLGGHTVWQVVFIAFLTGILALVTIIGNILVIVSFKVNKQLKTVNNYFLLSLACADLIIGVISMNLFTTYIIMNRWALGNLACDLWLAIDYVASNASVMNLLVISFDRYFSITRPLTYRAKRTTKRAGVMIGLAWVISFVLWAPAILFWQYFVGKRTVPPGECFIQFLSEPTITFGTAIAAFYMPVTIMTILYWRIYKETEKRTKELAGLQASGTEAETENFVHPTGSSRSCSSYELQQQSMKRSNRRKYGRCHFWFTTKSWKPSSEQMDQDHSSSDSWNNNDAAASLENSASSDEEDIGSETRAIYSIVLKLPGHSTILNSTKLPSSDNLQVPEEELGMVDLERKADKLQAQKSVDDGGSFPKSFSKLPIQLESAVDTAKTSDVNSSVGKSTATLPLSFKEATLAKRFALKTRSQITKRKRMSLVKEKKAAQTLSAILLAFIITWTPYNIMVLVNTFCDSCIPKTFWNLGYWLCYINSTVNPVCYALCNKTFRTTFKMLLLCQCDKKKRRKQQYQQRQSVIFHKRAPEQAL

[6] = target: Safetyscreen44 off target panel (Homo sapiens, UniProt P22303)
[7] = target: Safetyscreen44 off target panel (Homo sapiens, UniProt P25101)
[8] = target: Safetyscreen44 off target panel (Homo sapiens, UniProt P28223)
Chain of Safetyscreen44 off target panel (Homo sapiens, UniProt P28223) (P28223 whole entry): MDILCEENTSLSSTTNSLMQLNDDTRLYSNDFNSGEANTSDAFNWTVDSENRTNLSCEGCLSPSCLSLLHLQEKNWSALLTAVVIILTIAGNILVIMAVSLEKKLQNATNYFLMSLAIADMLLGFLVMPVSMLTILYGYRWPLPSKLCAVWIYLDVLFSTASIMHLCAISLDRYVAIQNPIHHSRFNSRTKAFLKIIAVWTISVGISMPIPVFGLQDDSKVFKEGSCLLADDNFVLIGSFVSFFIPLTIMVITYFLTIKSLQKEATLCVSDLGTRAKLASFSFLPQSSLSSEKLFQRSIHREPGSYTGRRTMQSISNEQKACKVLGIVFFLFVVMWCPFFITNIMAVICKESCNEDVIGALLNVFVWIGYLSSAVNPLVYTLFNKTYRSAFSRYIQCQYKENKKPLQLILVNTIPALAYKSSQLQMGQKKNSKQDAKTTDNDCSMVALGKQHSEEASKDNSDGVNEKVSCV

[9] = target: Safetyscreen44 off target panel (Homo sapiens, UniProt P32238)
[10] = target: Safetyscreen44 off target panel (Homo sapiens, UniProt P35354)
Chain of Safetyscreen44 off target panel (Homo sapiens, UniProt P35354) (P35354 18-604): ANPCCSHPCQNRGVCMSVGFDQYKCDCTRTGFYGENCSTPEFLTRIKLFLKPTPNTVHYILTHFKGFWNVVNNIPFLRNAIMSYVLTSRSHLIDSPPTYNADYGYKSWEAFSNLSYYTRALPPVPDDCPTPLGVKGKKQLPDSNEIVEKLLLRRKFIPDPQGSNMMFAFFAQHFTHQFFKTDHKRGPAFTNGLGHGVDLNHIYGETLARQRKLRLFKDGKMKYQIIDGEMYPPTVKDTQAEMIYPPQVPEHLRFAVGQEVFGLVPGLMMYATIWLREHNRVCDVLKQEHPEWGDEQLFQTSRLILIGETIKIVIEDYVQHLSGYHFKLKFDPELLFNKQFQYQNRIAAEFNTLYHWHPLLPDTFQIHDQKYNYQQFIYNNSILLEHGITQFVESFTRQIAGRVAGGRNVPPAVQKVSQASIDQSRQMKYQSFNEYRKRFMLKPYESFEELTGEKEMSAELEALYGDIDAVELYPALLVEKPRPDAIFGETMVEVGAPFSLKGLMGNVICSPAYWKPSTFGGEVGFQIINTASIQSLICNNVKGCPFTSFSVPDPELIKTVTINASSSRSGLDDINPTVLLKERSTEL

[11] = target: Safetyscreen44 off target panel (Homo sapiens, UniProt P35372)
Chain of Safetyscreen44 off target panel (Homo sapiens, UniProt P35372) (P35372 whole entry): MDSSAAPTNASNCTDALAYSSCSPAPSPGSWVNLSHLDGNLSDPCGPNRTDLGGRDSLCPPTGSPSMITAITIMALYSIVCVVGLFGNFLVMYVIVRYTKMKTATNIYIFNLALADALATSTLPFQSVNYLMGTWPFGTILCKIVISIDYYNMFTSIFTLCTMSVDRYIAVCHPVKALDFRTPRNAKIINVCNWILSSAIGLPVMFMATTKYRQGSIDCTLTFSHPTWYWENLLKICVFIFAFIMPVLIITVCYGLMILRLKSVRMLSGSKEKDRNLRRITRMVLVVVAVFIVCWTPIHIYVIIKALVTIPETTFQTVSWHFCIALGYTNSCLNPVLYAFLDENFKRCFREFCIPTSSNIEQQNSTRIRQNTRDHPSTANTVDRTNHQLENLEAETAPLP

[12] = target: Safetyscreen44 off target panel (Homo sapiens, UniProt P37288)
Chain of Safetyscreen44 off target panel (Homo sapiens, UniProt P37288) (P37288 whole entry): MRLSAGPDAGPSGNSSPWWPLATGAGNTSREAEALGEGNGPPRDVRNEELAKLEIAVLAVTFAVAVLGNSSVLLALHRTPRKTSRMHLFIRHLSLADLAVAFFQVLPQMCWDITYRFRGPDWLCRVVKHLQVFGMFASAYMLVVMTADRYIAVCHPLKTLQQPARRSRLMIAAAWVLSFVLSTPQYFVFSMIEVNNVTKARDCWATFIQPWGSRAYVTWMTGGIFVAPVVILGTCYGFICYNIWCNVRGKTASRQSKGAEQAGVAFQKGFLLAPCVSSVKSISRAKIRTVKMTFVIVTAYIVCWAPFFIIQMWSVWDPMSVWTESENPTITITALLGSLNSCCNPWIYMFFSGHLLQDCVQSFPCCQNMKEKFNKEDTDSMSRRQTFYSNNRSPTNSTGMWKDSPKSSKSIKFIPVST

[13] = target: Safetyscreen44 off target panel (Homo sapiens, UniProt P41595)
[14] = target: Safetyscreen44 off target panel (Homo sapiens, UniProt P43681)
[15] = target: Safetyscreen44 off target panel (Homo sapiens, UniProt Q14432)
[16] = target: Safetyscreen44 off target panel (Rattus norvegicus, UniProt P21396)
Chain of Safetyscreen44 off target panel (Rattus norvegicus, UniProt P21396) (P21396 whole entry): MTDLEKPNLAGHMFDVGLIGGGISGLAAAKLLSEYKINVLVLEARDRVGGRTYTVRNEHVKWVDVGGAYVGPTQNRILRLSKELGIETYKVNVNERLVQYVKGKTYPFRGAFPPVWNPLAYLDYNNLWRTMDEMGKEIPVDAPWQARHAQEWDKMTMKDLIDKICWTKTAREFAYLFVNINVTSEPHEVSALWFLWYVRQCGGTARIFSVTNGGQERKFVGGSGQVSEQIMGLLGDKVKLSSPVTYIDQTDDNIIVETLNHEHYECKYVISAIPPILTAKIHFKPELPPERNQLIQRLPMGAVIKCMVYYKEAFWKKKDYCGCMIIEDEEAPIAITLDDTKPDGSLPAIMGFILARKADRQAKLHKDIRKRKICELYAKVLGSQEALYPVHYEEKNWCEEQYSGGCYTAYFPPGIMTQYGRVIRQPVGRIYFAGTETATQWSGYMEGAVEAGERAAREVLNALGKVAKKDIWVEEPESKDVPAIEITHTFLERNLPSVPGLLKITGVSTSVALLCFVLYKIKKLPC

[17] = test system: Safetyscreen44 off target panel
in vivo = details: male, CD-1 (ICR), mouse, iv, 5 mg/kg
CYP1A (printed CYPiA) = experiment: in vitro; details: human, microsomes, % inhibition, CYPiA inhibition (HLM, phenacetin substrate)
CYP2B6 = CYP2B6 (Homo sapiens, UniProt P20813); experiment: in vitro; details: microsomes, % inhibition, CYP2B6 inhibition (HLM, bupropion substrate)
Chain of CYP2B6 (P20813 whole entry): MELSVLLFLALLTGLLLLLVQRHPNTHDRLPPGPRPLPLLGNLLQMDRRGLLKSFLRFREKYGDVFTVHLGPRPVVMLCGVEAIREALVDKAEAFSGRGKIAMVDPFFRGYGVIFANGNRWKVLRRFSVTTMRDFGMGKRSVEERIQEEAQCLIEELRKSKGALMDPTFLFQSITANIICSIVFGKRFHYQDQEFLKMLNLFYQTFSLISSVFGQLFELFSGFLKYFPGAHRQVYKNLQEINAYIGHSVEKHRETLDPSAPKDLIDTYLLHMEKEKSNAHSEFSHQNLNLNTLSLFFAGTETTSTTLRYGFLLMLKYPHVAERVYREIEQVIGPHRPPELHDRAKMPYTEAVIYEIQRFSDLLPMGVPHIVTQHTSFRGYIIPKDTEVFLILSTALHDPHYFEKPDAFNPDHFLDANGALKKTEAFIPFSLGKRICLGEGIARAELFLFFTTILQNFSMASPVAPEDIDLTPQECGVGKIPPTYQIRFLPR

CYP2C19 = CYP2C19 (Homo sapiens, UniProt P33261); experiment: in vitro; details: microsomes, % inhibition, CYP2C19 inhibition (HLM, omeprazole substrate)
CYP2C8 = CYP2C8 (Homo sapiens, UniProt P10632); experiment: in vitro; details: microsomes, % inhibition, CYP2C8 inhibition (HLM, amodiaquine substrate)
Chain of CYP2C8 (P10632 whole entry): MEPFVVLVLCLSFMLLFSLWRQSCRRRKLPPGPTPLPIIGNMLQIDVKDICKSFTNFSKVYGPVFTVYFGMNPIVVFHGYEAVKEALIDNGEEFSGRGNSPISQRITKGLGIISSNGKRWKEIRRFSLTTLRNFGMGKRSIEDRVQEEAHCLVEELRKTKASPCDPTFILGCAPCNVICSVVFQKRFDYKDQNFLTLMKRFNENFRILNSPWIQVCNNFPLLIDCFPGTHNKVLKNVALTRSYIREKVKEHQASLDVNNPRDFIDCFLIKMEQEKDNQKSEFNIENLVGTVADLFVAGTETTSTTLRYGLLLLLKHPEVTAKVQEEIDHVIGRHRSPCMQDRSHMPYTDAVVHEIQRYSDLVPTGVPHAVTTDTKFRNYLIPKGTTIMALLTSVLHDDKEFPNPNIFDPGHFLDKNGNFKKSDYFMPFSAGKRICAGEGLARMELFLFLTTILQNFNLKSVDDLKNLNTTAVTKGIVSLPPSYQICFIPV

CYP2C9 = CYP2C9 (Homo sapiens, UniProt P11712); experiment: in vitro; details: microsomes, % inhibition, CYP2C9 inhibition (HLM, diclofenac substrate)
CYP2D6 = CYP2D6 (Homo sapiens, UniProt P10635); experiment: in vitro; details: microsomes, % inhibition, CYP2D6 inhibition (HLM, dextromethorphan substrate)
CYP3A = experiment: in vitro; details: human, microsomes, % inhibition
EC12923 = experiment: MIC, microdilution broth method; format: cell-based
VRE12204 = experiment: MIC, microdilution broth method; format: cell-based, Enterococcus faecium; details: ESKAPE panel, Gram-positive; in µg/mL

Chain of Safetyscreen44 off target panel (Homo sapiens, UniProt P11229) (P11229 whole entry): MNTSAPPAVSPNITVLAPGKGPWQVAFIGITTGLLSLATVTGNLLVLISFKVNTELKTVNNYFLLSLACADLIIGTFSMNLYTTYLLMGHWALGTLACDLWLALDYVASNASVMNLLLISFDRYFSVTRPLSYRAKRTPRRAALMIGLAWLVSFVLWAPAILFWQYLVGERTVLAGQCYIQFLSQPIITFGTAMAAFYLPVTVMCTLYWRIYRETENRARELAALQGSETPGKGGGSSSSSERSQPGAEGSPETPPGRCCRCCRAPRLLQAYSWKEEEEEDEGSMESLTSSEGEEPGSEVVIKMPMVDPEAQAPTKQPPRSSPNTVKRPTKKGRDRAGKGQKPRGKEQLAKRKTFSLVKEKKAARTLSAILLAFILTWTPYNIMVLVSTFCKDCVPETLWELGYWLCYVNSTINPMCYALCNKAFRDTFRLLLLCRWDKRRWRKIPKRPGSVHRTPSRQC
Chain of Safetyscreen44 off target panel (Homo sapiens, UniProt P08588) (P08588 whole entry): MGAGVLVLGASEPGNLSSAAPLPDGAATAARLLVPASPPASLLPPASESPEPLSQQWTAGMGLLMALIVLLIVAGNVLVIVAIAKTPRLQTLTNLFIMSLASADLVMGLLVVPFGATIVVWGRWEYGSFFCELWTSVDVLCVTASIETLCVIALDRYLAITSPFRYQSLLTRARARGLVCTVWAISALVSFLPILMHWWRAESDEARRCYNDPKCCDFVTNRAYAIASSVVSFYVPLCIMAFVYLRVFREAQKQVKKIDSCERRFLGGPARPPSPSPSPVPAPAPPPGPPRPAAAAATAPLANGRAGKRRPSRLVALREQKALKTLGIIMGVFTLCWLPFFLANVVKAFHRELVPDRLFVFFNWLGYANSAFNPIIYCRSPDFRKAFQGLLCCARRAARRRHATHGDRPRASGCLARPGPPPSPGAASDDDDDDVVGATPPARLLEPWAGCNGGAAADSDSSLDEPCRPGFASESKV

C[C@H]1COc2c(N3CC[C@@H](Nc4ncccn4)C3)c(F)cc3c(=O)c(C(=O)O)cn1c23 [KSN-82-L22]
AUGinf [1]: 6691 ng·h/mL | Liver Blood Flow [1]: 10.4% | % inhibition, beta 1 (h) (agonist radioligand) [2]: 1.921% | % inhibition, AR (h) (agonist radioligand) [3]: 4.241% | % inhibition, M1 (h) (antagonist radioligand) [4]: 3.129% | % inhibition, M3 (h) (antagonist radioligand) [5]: 2.273% | % inhibition, acetylcholinesterase (h) [6]: 32.9861% | % inhibition, ETA (h) (agonist radioligand) [7]: −5.236% | % inhibition, 5-HT2A (h) (agonist radioligand) [8]: −8.881% | % inhibition, CCK1 (CCKA) (h) (agonist radioligand) [9]: −2.038% | % inhibition, COX2(h) [10]: 8.111% | % inhibition, mu (MOP) (h) (agonist radioligand) [11]: 6.535% | % inhibition, V1a (h) (agonist radioligand) [12]: −12.5662% | % inhibition, 5-HT2B (h) (agonist radioligand) [13]: 5.374% | % inhibition, N neuronal alpha 4beta 2 (h) (agonist radioligand) [14]: −41.8108% | % inhibition, PDE3A (h) [15]: 7.502% | % inhibition, MAO-A (antagonist radioligand) [16]: −9.13% | % inhibition, BZD (central) (agonist radioligand) [17]: −44.8289% | % inhibition, Ca2+ channel (L, dihydropyridine site) (antagonist radioligand) [17]: 6.049% | % inhibition, D2S (h) (agonist radioligand) [17]: −7.807% | % inhibition, NMDA (antagonist radioligand) [17]: 12.6124% | % inhibition, Na+ channel (site 2) (antagonist radioligand) [17]: 23.6539% | % inhibition, PDE4D2 (h) [17]: 14.8003% | % inhibition, alpha 1A (h) (antagonist radioligand) [17]: 11.5312% | Vd (in vivo): 1 to 4 L/kg | inhibition at 10 µM (CYP1A (printed CYPiA)): 9.56% | inhibition at 10 µM (CYP2B6): -1.32% | inhibition at 10 µM (CYP2C19): 0.632% | inhibition at 10 µM (CYP2C8): 3.05% | inhibition at 10 µM (CYP2C9): 12.8% | inhibition at 10 µM (CYP2D6): 0% | inhibition at 10 µM (CYP3A; CYP3A inhibition (HLM, midazolam substrate)): 25.2% | inhibition at 10 µM (CYP3A; CYP3A inhibition (HLM, testosterone substrate)): 6.52%

Cc1cc(C)nc(N[C@@H]2CCN(c3c(F)cc4c(=O)c(C(=O)O)cn5c4c3OC[C@@H]5C)C2)n1 [KSN-BL7, (S)-10-((R)-3-((4,6-dimethylpyrimidin-2-yl)amino)pyrrolidin-1-yl)-9-fluoro-3-methyl-7-oxo-2,3-dihydro-7H-[1,4]oxazino[2,3,4-ij]quinoline-6-carboxylic acid]
MIC, EC12923 (EC12923; ESKAPE panel, Gram-negative, in µg/mL): 1 | MIC (EC12923; Escherichia coli): 1 µg/mL (≈ 2.21 µM) | MIC, VRE12204 (VRE12204): 1
